These are literature values, as cited in patent publication US11154585B2, “Orodispersible film composition comprising enalapril for the treatment of hypertension in a pediatric population” (PHARMATHEN S.A., priority 2017, dated 2021).

Each structure is given as a SMILES string. Where a name gives a salt, the structure may show the parent alone. Read-outs that look alike come from different tables or passages of the source.

As for `CCOC(=O)[C@H](CCc1ccccc1)N[C@@H](C)C(=O)N1CCC[C@H]1C(=O)O` [Enalapril maleate], the Solubility result is, setting by setting: (alcohol) “soluble”; (methanol and dimethylformamide) “freely soluble”; (nonpolar organic solvents) “practically insoluble”; (semi polar organic solvents) “slightly soluble”; (water) “sparingly soluble”.
